In US20040039211A1, “Tetrapyrroles” (DUKE UNIVERSITY AND NATIONAL JEWISH MEDICAL AND RESEARCH …, priority 2000, published 2004):
Where two headings read alike, the source gives them in different places. Marks after values point to notes of the source that are not given here. One block for each molecule: values may come before it.

Legend:
[1] = Mn(III)/Mn(II) couple; aqueous solution (pH 7.8, 0.1 M NaCl); Ref 4; cited from earlier work
[2] = Cyclic voltammetry, metal-centered redox potential; assay type: physicochemical; settings: Mn(III)/Mn(II) couple; for E1/2, V vs Ag/AgCl: 90/10 (v/v) methanol/aqueous solution, pH* 7.9
Experimental: Manganese(III) Salen. The compound was prepared by the published procedure (Boucher, J. lnorg. Nucl. Chem. 36:531 (1974)). The uv/vis in water: ε235=3.70×10^4 cm^−1 M^−1, ε279=1.70×10^4 cm^−1 M^−1, ε397=4.60×10^3 cm^−M^−1. The elemental analysis: Anal. Calcd for Mn^IIIsalenCl, C16H14N2O2MnCl: C, 53.88; H, 3.96; N; 7.85. Found: C, 54.02; H, 4.06; N, 7.85. […] Based on the E1/2 of Mn^IIITM-2-PyP^5+, ferrocenemethanol and of K3Fe(CN)6 in water and methanol, the redox potential of Mn^III salen^+ in water was calculated to be E1/2=−0.13 V vs NHE.
Electrochemistry of the Manganese(III) Biliverdin Dimethylester. Measurements were made using a CH Instruments model 600 voltammetric analyzer as described previously(Batinic-Haberle et al, Inorg. Chem. 38:4011 (1999)). A three-electrode system in a small volume (0.5-3.0 mL), with a 3 mm diameter glassy carbon button working electrode (Bioanalytical Systems), Ag/AgCl reference electrode (3 M NaCl, Bioanalytical Systems), and a Pt wire (0.5 mm) as auxiliary electrode, were used. The cyclic votammetry was performed on 0.5 mM (per manganese) methanol/aqueous (90/10, v/v) solutions of the compounds investigated. The ionic strength was kept at 0.10 M (NaCl), and 0.05 M tris buffer was used for pH^* adjustment. For calibration purposes, compounds of different hydrophilicities, […], (Kolthof et al, J. Phys. Chem. 39:945 (1935)) ferrocenemethanol and Mn^IIITM-2-PyP^5+ were studied in both aqueous and methanol/aqueous (90/10, v/v) solutions (I=0.10 M NaCl, 0.05 M tris buffer, pH^* 7.9). In all cases the measured E1/2 was 170 mV more positive in methanolic than in aqueous solution and this value was used to predict the redox potential in aqueous solution from measurement in methanol/aqueous solution.

[3] = Ref 4, cited from earlier work
[4] = pH* titration / protonation of the ligand; assay type: physicochemical; settings: 90/10 methanol/aqueous solution, 0.01 M tris and Pipes buffer
Experimental: Uv/vis Spectroscopy. […] Also the effects of EDTA, H2O2, and the methanol/water ratio on the stability of the manganese(III) complex were examined. […] Tris and Pipes buffers along with 1.0 M methanol/aqueous (90/10) solution of HCl were used for pH^* adjustments in methanol/aqueous solutions. The pH^* readings were measured on an Oakton pH-Meter equipped with a Denver Instruments combination glass electrode that was calibrated in methanol/water (90/10, v/v) buffer solutions: 10 mM oxalic acid/10 mM ammonium oxalate (pH^*=3.59) and 10 mM succinic acid/lithium hydrogen succinate (pH^*=6.55) (De Ligny et al. A. Rec. Trav. Chim. Pays-Bas 79:699 (1960)). When needed the biliverdin and biliverdin dimethylester as well as their reduced forms bilirubin and bilirubin dimethylester were studied.
Uv/Vis Spectroscopy. At pH^* 7.4 biliverdin dimethylester is in a fully deprotonated form, BVDME^3−. […] Carboxyl groups are separated from the main chromophores by two methylene groups, so that their ionization is not detectable spectrophotometrically. Thus the spectra of biliverdin and its ester are the same (Gray et al, J. Chem. Soc. 2276 (1961); Kuenzle et al. Biochem. J. 130:1147 (1972); O'Carra, Nature 899 (1962)). […] The kinetic trace recorded upon fast mixing of the 30 μM BVDME^3− with 75 μM or 150 μM MnCl2, fits to a single-exponential equation with a zero intercept. […]

[5] = system: SOD-deficient E. coli JI132; assay: Aerobic growth of SOD-deficient E. coli in minimal medium; assay type: cell-based; settings: minimal (five amino acids) medium
Experimental: FIG. 13. […] The 20 mM ethanolic/albumin solution of compound was diluted into the medium. Also the growth of SOD-deficient E. coli was followed in the presence of 0.15% ethanol only (squares).
SOD activity can be monitored in the presence and absence of EDTA using the method of McCord and Fridovich (J. Biol. Chem. 244:6049 (1969)). The efficacy of a mimetic can also be determined by measuring the effect of the mimetic on the aerobic growth of a SOD null E. coli strain versus a parent strain. Specifically, parental E. coli (AB1157) and SOD null E. coli. […]
Effects on E. coli. E. coli strains AB1157 (SOD-proficient, wild type) and JI132 (SOD-deficient, sodAsodB) were obtained from J. A. Imlay (Imlay et al, J. Bacteriol. 169:2967 (1987)). […] Cultures were treated as previously described (Faulkner et al, J. Biol. Chem. 269:23471 (1994); Benov et al, J. Biol. Chem. 273:10313 (1998)). Due to the low water solubility, the compounds were solubilized with albumin in medium at a 1:1 molar ratio. Albumin itself had no effect on growth in the concentration range employed. Since methanol was toxic to the SOD-deficient strain of E. coli even when present in medium at 0.15%, the stock solutions of the compounds were prepared in ethanol.

[6] = Degradation by H2O2 followed by uv/vis spectroscopy; assay type: physicochemical; settings: pH 7.8; for fraction degraded by H2O2: 4.4 h, 60 μM
Excerpt: Uv/vis Spectroscopy. […] Also the effects of EDTA, H2O2, and the methanol/water ratio on the stability of the manganese(III) complex were examined. […] 79:699 (1960)). When needed the biliverdin and biliverdin dimethylester as well as their reduced forms bilirubin and bilirubin dimethylester were studied. At μM concentrations, manganese(III) and iron(III) porphyrins are degraded by H2O2 in aqueous solution. pH 7.8 (Batinic-Haberle et al, Inorg. Chem. 38:4011 (1999), Everett et al, J. Trans. Faraday Soc. 49:410 (1953)). […] The reaction was followed in 90/10, v/v methanouaqueous solution at pH^* 7.9. […] The uv/vis spectroscopy indicated degradation via the reduction of biliverdin to bilirubin followed by loss of metal (Gray et al, J. Chem. Soc. 2276 (1961); Kuenzle et al, Biochem. J. 130:1147 (1972); […], Nature 899 (1962)). The interaction of biliverdin and bilirubin with H2O, was also followed in 0.05 M tris buffer, pH 7.8. As observed for its metal complex, biliverdin undergoes reduction by H2O2 via bilirubin. Under pseudo-first order conditions (6 mM to 60 mM H2O2, 60 μM biliverdin), the second-order rate constant was k=3×10^-3 M^-1 s^-1. Bilirubin is more resistant to H2O2 than biliverdin or its metal complex. The disappearance of bilirubin was followed at 435 nm (Gray et al, J. Chem. Soc. 2268 (1961)). Under conditions given above and at 60 mM H2O2, about 40% of the biliverdin and 14% of bilirubin was degraded within 4.4 hours, and about 14% of the complex was degraded inside 80 min.

[7] = H4BV^+; literature (Gray et al; Kuenzle et al; O'Carra); cited from earlier work
[8] = SOD activity, xanthine oxidase/cytochrome c method; assay type: biochemical; settings: for SOD-like activity (in words): 0.05 M phosphate buffer, pH 7.8, 0.1 mM EDTA
Experimental: FIG. 12. […] The v0 is the rate of reduction of 10 μM cytochrome c by O2. The vi is the rate of reduction of cytochome c inhibited by the porphyrin catalyst in the presence of 0.1 mM EDTA in 0.05 M tris buffer at pH 7.8. 40 μM xanthine. ˜2 nM xanthine oxidase at 25° C. The total volume of the assay solution is 3 mL.
SOD Activity. Catalysis of the dismutating of O2 in vitro was followed by the xanthine oxidase/cytochrome c method (McCord et al, J. Biol. Chem. 244:6049 (1969)).
Dismutation of superoxide anion, O2^−. Assays were conducted in 0.05 M aqueous phosphate buffer, pH 7.8, 0.1 mM EDTA, ±15 μg/mL of catalase, ±albumin. Rate constants for the reaction with O2^−were based upon the competition of the compounds with cytochrome c.
(§1) Two metallotetrapyrroles were tested for antioxidant activity, in vitro. In particular, the compounds were assayed for their ability to dismutate superoxide in the indirect method that utilizes xanthine and xanthine oxidase to generate superoxide and cytochrome c reduction as indicator of superoxide flux. […] The compounds were also assayed for their ability to prevent lipid peroxidation of rat brain homogenates by iron and ascorbate. The mixture of iron and ascorbate generates reactive oxygen species that oxidize biological lipids and these oxidized lipids can be detected as species that react with thiobarbituric acid (TBARS).
a) SOD activity determined using a xanthine oxidase/cytochrome c assay

rat brain homogenates = assay: Lipid peroxidation of rat brain homogenates by iron/ascorbate (TBARS); assay type: biochemical; settings: concentration that reduced lipid peroxidation by one-half
Experimental: The ability of mimetics to inhibit lipid peroxidation can be assessed as described by Day et al, Free Rad. Biol. Med. 26:730 (1990). Iron and ascorbate can be used to initiate lipid peroxidation in tissue homogenates and the formation of thiobarbituric acid reactive species (T BARS) measured.
as §1, with “(TBARS). Both compounds could inhibit the formation of TBARS and this ability correlated with their superoxide dismutase (SOD) activity (Table 5).” for “(TBARS).”
b) Lipid peroxidation was initiated in rat brain homogenates with iron/ascorbate and the IC50 is the concentration of compound that reduced lipid peroxidation by one-half.

[9] = Hydrolysis / dissociation of the complex in methanol/aqueous or water solution; assay type: physicochemical; settings: water
Experimental: Uv/vis Spectroscopy. […] Also the effects of EDTA, H2O2, and the methanol/water ratio on the stability of the manganese(III) complex were examined. […] […] 79:699 (1960)). When needed the biliverdin and biliverdin dimethylester as well as their reduced forms bilirubin and bilirubin dimethylester were studied. […] In a week, at 25° C., only 14% of the complex dissociated. When the water content was increased to 43%, half the complex dissociated in a week.

[10] = SOD activity, xanthine oxidase/cytochrome c method; assay type: biochemical; settings: absence of EDTA

Molecule: manganese(III) tetrakis(N-methylpyridinium-2-yl)porphyrin [Mn^III/IITM-2-PyP^5−4−]
E1/2, V vs NHE [1]: −0.22 V vs NHE
E1/2, V vs Ag/AgCl [2]: −0.12 V vs Ag/AgCl
kcat, O2^− dismutation ([3]; 25° C.): 6.0 × 10^7a M^−1 s^−1
SOD specific activity [3]: 8.500^a U/mg

Molecule: C=CC1=C(C)/C(=C/C2=NC(=C\c3[nH]c(/C=C4/NC(=O)C(C)=C4C=C)c(C)c3CCC(=O)OC)/C(CCC(=O)OC)=C2C)NC1=O [BVDME^3−, Biliverdin IX dimethylester, reference compound]
pH* region in which protonation occurs [4]: below 4
effect on SOD-deficient E. coli growing under aerobic conditions (in words) [5]: neither beneficial nor toxic

second-order rate constant k of reaction with H2O2 ([6]; 0.05 M tris buffer, 6 mM to 60 mM H2O2, 60 μM): 0.003 M⁻¹ s⁻¹
fraction degraded by H2O2 [6]: about 40%
Molecule: C=CC1=C(C)/C(=C/C2=NC(=C\c3[nH]c(/C=C4\NC(=O)C(C)=C4C=C)c(C)c3CCC(=O)O)/C(CCC(=O)O)=C2C)NC1=O [biliverdin, biliverdin IX]
pKa [7]: ~3
SOD-like activity (in words) [8]: Neither biliverdin nor bilirubin showed any observable SOD-like activity

fraction degraded by H2O2 [6]: about 14%
Molecule: C=CC1=C(C)/C(=C/c2[nH]c(Cc3[nH]c(/C=C4\NC(=O)C(C)=C4C=C)c(C)c3CCC(=O)O)c(CCC(=O)O)c2C)NC1=O [bilirubin, bilirubin IX]

IC50 (rat brain homogenates): 70 µM
SOD Activity ([8]; xanthine oxidase/cytochrome c assay): 6.2 USOD/mg
Molecule: manganese (III) bilirubin ditaurate [MnBRDT]

Molecule: C=CC1=C(C)C2=CC3=NC(=Cc4c(CCC(=O)O)c(C)c5[n]4[Mn]([O]C4=NC(=Cc6c(C)c(CCC(=O)O)c7[n]6[Mn]([O]C6=NC(=C5)C(C=C)=C6C)[N]5C(=O)C(C=C)=C(C)C5=CC5=NC(=C7)C(CCC(=O)O)=C5C)C(C=C)=C4C)[N]2C1=O)C(CCC(=O)O)=C3C [(Mn^IIIBV)2, Mn^III Biliverdin]
stability in water solution [9]: lacks adequate stability in water solution

SOD specific activity [10]: 700^f U/mg
kcat, O2^− dismutation ([10]; 25° C.): 6.0 × 10^5f M^−1 s^−1
E1/2, V vs Ag/AgCl [2]: −0.23 V vs Ag/AgCl
E1/2, V vs NHE ([2]; extrapolated/calculated redox potential in aqueous solution): −0.13 V vs NHE
SOD-like activity (in words) [8]: observed only in the absence of chelator
Molecule: [Cl-].[Mn+3].[O-]c1ccccc1C=NCCN=Cc1ccccc1[O-] [Mn^III/IIsalen^−/0, Manganese(III) Salen, reference compound]
